Results from patent US12427187B2, “Glucose-responsive insulin conjugates” (priority 2019, dated 2025).
pEC50, pIC50: −log10 of the molar value.

The compounds below were run against human IR(B) (Homo sapiens, UniProt P06213) (assay: Insulin receptor phosphorylation assay (MSD pIR)). Conditions: Method A: IR phosphorylation assay, 96-well; CHO cells expressing human IR(B); IP = inflection point; read-out: IR Activation IP.
Format: cell-based
Experimental: CHO cells stably expressing human IR(B) were in grown in F12 cell media containing 10% FBS and antibiotics (G418, Penicillin/Strepavidin) for at least 8 hr, and then serum starved by switching to F12 media containing 0.5% BSA (insulin-free) in place of FBS for overnight growth. Cells were harvested and frozen in aliquots for use in the MSD pIR assay. Briefly, the frozen cells were plated in either 96-well (40,000 cells/well, Methods A) or 384-well (10,000 cells/well, Method B) clear tissue culture plates and allowed to recover. IOC molecules at the appropriate concentrations were added and the cells incubated for 8 min at 37° C. The media was aspirated and chilled MSD cell lysis buffer was added as per MSD kit instructions. The cells were lysed on ice for 40 min and the lysate then mixed for 10 min at rt. The lysate was transferred to the MSD kit pIR detection plates. The remainder of the assay was carried out following the MSD kit recommended protocol.
The in vitro biological activities towards insulin receptor (IR) were measured by either ligand competition assays or functional phosphorylation assays, as described above, labeled as following: Method A: IR phosphorylation assay based on 96-well; Method B: IR phosphorylation assay based on 384-well with automated liquid dispense; Method C: cell-based IR binding assay; Method D: SPA IR binding assay method E; Method E: MRC1 assay was performed in a 96-well plate; Method F: MRC1 assay was performed in a 384-well plate.

human IR(B), sequence (P06213 28-758 limits assumed): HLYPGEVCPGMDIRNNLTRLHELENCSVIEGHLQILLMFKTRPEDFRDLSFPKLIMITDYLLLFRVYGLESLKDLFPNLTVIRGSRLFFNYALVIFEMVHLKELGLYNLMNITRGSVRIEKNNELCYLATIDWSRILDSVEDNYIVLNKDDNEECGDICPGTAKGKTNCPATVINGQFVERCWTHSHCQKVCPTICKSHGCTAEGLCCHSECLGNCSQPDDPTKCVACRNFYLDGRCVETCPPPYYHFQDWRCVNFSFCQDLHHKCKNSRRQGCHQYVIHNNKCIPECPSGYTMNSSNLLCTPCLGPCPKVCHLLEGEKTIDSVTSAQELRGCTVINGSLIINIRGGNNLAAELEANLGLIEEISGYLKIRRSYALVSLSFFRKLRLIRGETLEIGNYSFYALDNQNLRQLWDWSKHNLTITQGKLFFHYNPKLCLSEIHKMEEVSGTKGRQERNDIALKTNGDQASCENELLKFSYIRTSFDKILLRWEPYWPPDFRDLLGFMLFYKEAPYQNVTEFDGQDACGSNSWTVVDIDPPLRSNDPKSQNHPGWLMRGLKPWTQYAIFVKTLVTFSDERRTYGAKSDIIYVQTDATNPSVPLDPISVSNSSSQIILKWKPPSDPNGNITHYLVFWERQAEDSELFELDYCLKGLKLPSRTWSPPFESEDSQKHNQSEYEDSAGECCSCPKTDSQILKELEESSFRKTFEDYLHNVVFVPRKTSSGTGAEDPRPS
human IR(B), sequence (P06213 763-1382 partner limits assumed): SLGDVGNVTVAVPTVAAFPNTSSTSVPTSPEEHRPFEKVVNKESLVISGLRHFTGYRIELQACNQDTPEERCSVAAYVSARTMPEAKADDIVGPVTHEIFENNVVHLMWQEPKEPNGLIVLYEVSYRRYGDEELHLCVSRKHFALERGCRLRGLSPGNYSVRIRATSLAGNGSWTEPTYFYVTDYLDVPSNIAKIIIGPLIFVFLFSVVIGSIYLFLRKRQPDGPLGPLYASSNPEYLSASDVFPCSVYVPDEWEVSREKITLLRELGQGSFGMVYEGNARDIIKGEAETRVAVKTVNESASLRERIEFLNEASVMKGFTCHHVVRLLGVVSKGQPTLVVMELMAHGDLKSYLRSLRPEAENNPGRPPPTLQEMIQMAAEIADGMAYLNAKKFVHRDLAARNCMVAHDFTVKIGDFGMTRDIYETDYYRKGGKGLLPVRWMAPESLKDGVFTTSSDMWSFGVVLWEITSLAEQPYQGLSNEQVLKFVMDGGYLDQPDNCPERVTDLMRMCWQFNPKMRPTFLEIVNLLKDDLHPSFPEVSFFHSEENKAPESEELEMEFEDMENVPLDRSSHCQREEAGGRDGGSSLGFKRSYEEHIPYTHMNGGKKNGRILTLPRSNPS

Row | pEC50 | Structure (SMILES)
1 | 8.08 | CC(=O)[C@H](CCCCN)NC(=O)[C@H](CCCCNC(=O)CCCCC(=O)N(CCOC1O[C@H](CO)[C@@H](O)[C@H](O)[C@@H]1O)CCOC1O[C@H](CO)[C@@H](O)[C@H](O)[C@@H]1O)NC(=O)[C@H](CCCNC(=O)CCCCC(=O)N(CCOC1O[C@H](CO)[C@@H](O)[C@H](O)[C@@H]1O)CCOC1O[C@H](CO)[C@@H](O)[C@H](O)[C@@H]1O)NC(=O)CCCCC(=O)N(CCOC1O[C@H](CO)[C@@H](O)[C@H](O)[C@@H]1O)CCOC1O[C@H](CO)[C@@H](O)[C@H](O)[C@@H]1O (stereo partly drawn) [IOC-44]

Each compound was assayed against T1, Human macrophage mannose receptor 1 (MRC1) (Homo sapiens, UniProt P22897) (assay: MRC1 competition binding assay with Eu-mannosylated-BSA). Conditions: MRC1 Binding IP, Method F: 384-well plate; IP = inflection point.
T1 sequence (P22897 19-1456): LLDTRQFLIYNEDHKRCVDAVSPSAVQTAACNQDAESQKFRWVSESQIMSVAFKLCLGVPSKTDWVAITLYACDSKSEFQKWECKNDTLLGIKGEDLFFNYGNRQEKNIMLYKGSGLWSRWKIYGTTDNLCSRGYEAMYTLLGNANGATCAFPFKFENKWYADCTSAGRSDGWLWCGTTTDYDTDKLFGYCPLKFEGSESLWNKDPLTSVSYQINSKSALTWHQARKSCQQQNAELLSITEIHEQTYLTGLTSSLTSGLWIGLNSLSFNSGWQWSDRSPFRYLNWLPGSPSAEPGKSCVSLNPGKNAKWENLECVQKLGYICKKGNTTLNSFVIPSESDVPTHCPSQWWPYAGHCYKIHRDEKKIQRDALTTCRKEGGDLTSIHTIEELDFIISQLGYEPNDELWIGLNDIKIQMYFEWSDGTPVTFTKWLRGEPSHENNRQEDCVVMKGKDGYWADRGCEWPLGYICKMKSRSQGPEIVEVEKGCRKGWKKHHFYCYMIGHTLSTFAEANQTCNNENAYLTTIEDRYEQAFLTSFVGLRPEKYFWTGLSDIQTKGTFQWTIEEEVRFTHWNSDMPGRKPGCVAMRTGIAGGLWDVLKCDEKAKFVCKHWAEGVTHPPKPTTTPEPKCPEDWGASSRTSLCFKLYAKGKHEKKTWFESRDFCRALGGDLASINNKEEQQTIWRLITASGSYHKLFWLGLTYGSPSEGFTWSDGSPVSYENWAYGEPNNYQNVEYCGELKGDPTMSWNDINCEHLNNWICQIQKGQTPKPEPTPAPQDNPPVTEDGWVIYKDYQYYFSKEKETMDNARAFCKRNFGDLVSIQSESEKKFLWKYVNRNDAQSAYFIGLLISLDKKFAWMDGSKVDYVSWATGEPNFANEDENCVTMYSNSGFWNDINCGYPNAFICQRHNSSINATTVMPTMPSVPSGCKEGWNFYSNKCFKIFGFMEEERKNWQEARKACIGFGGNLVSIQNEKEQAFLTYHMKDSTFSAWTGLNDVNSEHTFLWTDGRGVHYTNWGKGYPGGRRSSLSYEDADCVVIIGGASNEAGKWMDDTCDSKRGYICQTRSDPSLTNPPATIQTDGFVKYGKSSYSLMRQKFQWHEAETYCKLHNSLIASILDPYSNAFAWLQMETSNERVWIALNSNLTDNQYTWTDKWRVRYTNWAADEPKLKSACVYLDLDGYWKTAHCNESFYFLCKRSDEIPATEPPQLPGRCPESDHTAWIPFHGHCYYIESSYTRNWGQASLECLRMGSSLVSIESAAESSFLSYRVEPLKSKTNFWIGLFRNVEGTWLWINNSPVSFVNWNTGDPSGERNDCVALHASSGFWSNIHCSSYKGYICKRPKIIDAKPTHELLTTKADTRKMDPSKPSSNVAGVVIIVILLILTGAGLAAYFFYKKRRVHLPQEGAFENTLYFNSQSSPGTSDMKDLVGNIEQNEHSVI
Experimental: The competition binding assay for Human macrophage mannose receptor 1 (MRC1) utilized a ligand, mannosylated-BSA labeled with the DELFIA Eu-N1-ITC reagent, as reported in the literature. Assay was performed either in a 96-well plate with 100 μL well volume (Method E) or in a 384-well plate with 25 μL well volume (Method F). […] The antibody was incubated in the plate for 1 hr at rt with shaking. The plate was washed with wash buffer 3-5 times followed by addition of MRC1 (2 ng/μl final concentration) in PBS containing 1% stabilizer BSA. The plate was incubated at rt with gentle shaking for 1 hr. The plate was washed three times with wash buffer. The IOC molecules in 12.5 μL (or 50 μL depending on plate format) buffer at appropriate concentrations were added followed by 12.5 μL (or 50 μL) Eu-mannosylated-BSA (0.1 nm final concentration) in 50 mM Tris, pH 7.5 containing 100 mM NaCl, 5 mM CaCl2, 1 mM MgCl2 and 0.2% stabilizer BSA. The plate was incubated for 2 hrs at rt with shaking followed by washing three times with wash buffer.

Row | Structure (SMILES) | pIC50
2 | CC(=O)[C@H](CCCCN)NC(=O)CCCCCNC(=O)[C@H](CCCCNC(=O)CCCCCNC(=O)CN(CC(=O)NCCO[C@@H]1O[C@@H](C)[C@@H](O)[C@@H](O)[C@@H]1O)CC(=O)NCCO[C@@H]1O[C@@H](C)[C@@H](O)[C@@H](O)[C@@H]1O)NC(=O)[C@H](CCCCNC(=O)CCCCCNC(=O)CN(CC(N)=O)CC(=O)NCCO[C@@H]1CC(C)[C@@H](O)[C@@H](O)[C@@H]1O)NC(=O)CCCCCNC(=O)CN(CC(=O)NCCO[C@@H]1O[C@@H](C)[C@@H](O)[C@@H](O)[C@@H]1O)CC(=O)NCCO[C@@H]1O[C@@H](C)[C@@H](O)[C@@H](O)[C@@H]1O (stereo partly drawn) [IOC-41] | 8.22

Same assay, conditions: Method E: 96-well plate; IP = inflection point; read-out: MRC1 Binding IP

Row | pIC50 | Structure (SMILES)
3 | 7.50 | CC(=O)[C@H](CCCCN)NC(=O)[C@H](CCCCNC(=O)CCCCC(=O)N(CCOC1O[C@H](CO)[C@@H](O)[C@H](O)[C@@H]1O)CCOC1O[C@H](CO)[C@@H](O)[C@H](O)[C@@H]1O)NC(=O)[C@H](CCCNC(=O)CCCCC(=O)N(CCOC1O[C@H](CO)[C@@H](O)[C@H](O)[C@@H]1O)CCOC1O[C@H](CO)[C@@H](O)[C@H](O)[C@@H]1O)NC(=O)CCCCC(=O)N(CCOC1O[C@H](CO)[C@@H](O)[C@H](O)[C@@H]1O)CCOC1O[C@H](CO)[C@@H](O)[C@H](O)[C@@H]1O (stereo partly drawn) [IOC-44]
4 | 5.81 | CC(=O)[C@H](CCCCN)NC(=O)CCCCC(=O)N[C@@H](CCC(=O)NCCCC[C@@H](C(=O)NCCO[C@@H]1O[C@H](CO)[C@@H](O)[C@H](O)[C@H]1O)N(CC(=O)NCCO[C@@H]1O[C@H](CO)[C@@H](O)[C@H](O)[C@H]1O)CC(=O)NCCO[C@@H]1O[C@H](CO)[C@@H](O)[C@H](O)[C@H]1O)C(=O)N[C@@H](CCC(=O)NCCCC[C@@H](C(=O)NCCO[C@@H]1O[C@H](CO)[C@@H](O)[C@H](O)[C@H]1O)N(CC(=O)NCCO[C@@H]1O[C@H](CO)[C@@H](O)[C@H](O)[C@H]1O)CC(=O)NCCO[C@@H]1O[C@H](CO)[C@@H](O)[C@H](O)[C@H]1O)C(=O)N[C@@H](CC(C)C)C(=O)NCCCC[C@@H](C(=O)NCCO[C@@H]1O[C@H](CO)[C@@H](O)[C@H](O)[C@H]1O)N(CC(=O)NCCO[C@@H]1O[C@H](CO)[C@@H](O)[C@H](O)[C@H]1O)CC(=O)NCCO[C@@H]1O[C@H](CO)[C@@H](O)[C@H](O)[C@H]1O [IOC-57]

Same assay, conditions: Method F: 384-well plate; IP = inflection point; read-out: MRC1 Binding IP

Row | Structure (SMILES) | pIC50
5 | CC(=O)[C@H](CCCCN)NC(=O)CCCCC(=O)NCC(=O)N[C@@H](CCC(=O)N[C@@H](CCC(=O)NCCCCCC(=O)N(CCOC1O[C@H](CO)[C@@H](O)[C@H](O)[C@@H]1O)CCO[C@H]1O[C@H](CO)[C@@H](O)[C@H](O)[C@@H]1O)C(=O)NCCCCCC(=O)N(CCOC1O[C@H](CO)[C@@H](O)[C@H](O)[C@@H]1O)CCOC1O[C@H](CO)[C@@H](O)[C@H](O)[C@@H]1O)C(=O)NCCCCCC(=O)NCCO[C@H]1O[C@H](CO[C@H]2O[C@H](CO)[C@@H](O)[C@H](O)[C@@H]2O)[C@@H](O)[C@H](O[C@H]2O[C@H](CO)[C@@H](O)[C@H](O)[C@@H]2O)[C@@H]1O (stereo partly drawn) [IOC-35] | 7.78
6 | CC(=O)[C@H](CCCCN)NC(=O)CCCCC(=O)NCC(=O)N[C@@H](CCC(=O)N[C@@H](CCC(=O)NCCCCCC(=O)N(CCOC1O[C@H](CO)[C@@H](O)[C@H](O)[C@@H]1O)CCOC1O[C@H](CO)[C@@H](O)[C@H](O)[C@@H]1O)C(=O)NCCCCCC(=O)N(CCOC1O[C@H](CO)[C@@H](O)[C@H](O)[C@@H]1O)CCOC1O[C@H](CO)[C@@H](O)[C@H](O)[C@@H]1O)C(=O)NCCCCCC(=O)NCCO[C@@H]1O[C@H](CO[C@H]2O[C@H](CO)[C@@H](O)[C@H](O)[C@@H]2O)[C@@H](O)[C@H](O[C@H]2O[C@H](CO)[C@@H](O)[C@H](O)[C@@H]2O)[C@@H]1O (stereo partly drawn) [IOC-28] | 7.96
7 | CC(=O)[C@H](CCCCN)NC(=O)CCCCC(=O)N[C@@H](CCC(=O)N[C@@H](CCC(=O)N[C@@H](CCC(=O)N[C@@H](CCC(=O)N[C@@H](CCC(=O)NCCO[C@@H]1O[C@@H](C)[C@@H](O)[C@@H](O)[C@@H]1O)C(=O)NCCO[C@@H]1O[C@@H](C)[C@@H](O)[C@@H](O)[C@@H]1O)C(=O)NCCO[C@@H]1O[C@@H](C)[C@@H](O)[C@@H](O)[C@@H]1O)C(=O)NCCO[C@@H]1O[C@@H](C)[C@@H](O)[C@@H](O)[C@@H]1O)C(=O)NCCO[C@@H]1O[C@@H](C)[C@@H](O)[C@@H](O)[C@@H]1O)C(=O)NCCO[C@@H]1O[C@@H](C)[C@@H](O)[C@@H](O)[C@@H]1O [IOC-54] | 8.05
8 | CC(=O)[C@H](CCCCN)NC(=O)CCCCCNC(=O)[C@H](CCCCNC(=O)CCCCCNC(=O)CCCCCNC(=O)CN(CC(=O)NCCO[C@H]1O[C@H](CO)[C@@H](O)[C@H](O)[C@@H]1O)CC(=O)NCCO[C@H]1O[C@H](CO)[C@@H](O)[C@H](O)[C@@H]1O)NC(=O)[C@H](CCCCNC(=O)CCCCCNC(=O)CN(CC(=O)NCCO[C@H]1O[C@H](CO)[C@@H](O)[C@H](O)[C@@H]1O)CC(=O)NCCO[C@H]1O[C@H](CO)[C@@H](O)[C@H](O)[C@@H]1O)NC(=O)CCCCCNC(=O)CN(CC(=O)NCCO[C@H]1O[C@H](CO)[C@@H](O)[C@H](O)[C@@H]1O)CC(=O)NCCO[C@H]1O[C@H](CO)[C@@H](O)[C@H](O)[C@@H]1O [IOC-52] | 7.31
9 | CC(=O)[C@H](CCCCN)NC(=O)CCCCC(=O)NCC(=O)N[C@@H](CCC(=O)N[C@@H](CCC(=O)NCCCCCC(=O)N(CCOC1O[C@H](CO)[C@@H](O)[C@H](O)[C@@H]1O)CCO[C@H]1O[C@H](CO)[C@@H](O)[C@H](O)[C@@H]1O)C(=O)NCCCCCC(=O)N(CCOC1O[C@H](CO)[C@@H](O)[C@H](O)[C@@H]1O)CCOC1O[C@H](CO)[C@@H](O)[C@H](O)[C@@H]1O)C(=O)NCCCCCC(=O)NCCO[C@H]1O[C@H](CO[C@H]2O[C@H](CO)[C@@H](O)[C@H](O)[C@@H]2O)[C@@H](O)[C@H](O[C@H]2O[C@H](CO)[C@@H](O)[C@H](O)[C@@H]2O)[C@@H]1O (stereo partly drawn) [IOC-34] | 8.10

Other lines, results leading:

Row | pIC50 | Structure (SMILES)
10 | 7.54 | CC(=O)[C@H](CCCCN)NC(=O)CCCCC(=O)NCC(=O)N[C@@H](CCC(=O)N[C@@H](CCC(=O)NCCCCCC(=O)N(CCOC1O[C@H](CO)[C@@H](O)[C@H](O)[C@@H]1O)CCO[C@H]1O[C@H](CO)[C@@H](O)[C@H](O)[C@@H]1O)C(=O)NCCCCCC(=O)N(CCOC1O[C@H](CO)[C@@H](O)[C@H](O)[C@@H]1O)CCOC1O[C@H](CO)[C@@H](O)[C@H](O)[C@@H]1O)C(=O)NCCCCCC(=O)N(CC(=O)NCCO[C@@H]1O[C@@H](C)[C@@H](O)[C@@H](O)[C@@H]1O)CC(=O)NCCO[C@@H]1O[C@@H](C)[C@@H](O)[C@@H](O)[C@@H]1O (stereo partly drawn) [IOC-51]
11 | 7.23 | CC(=O)[C@H](CCCCN)NC(=O)CCCCCNC(=O)[C@H](CCCCNC(=O)[C@H](CCCCNC(=O)CCCCCNC(=O)CN(CC(=O)NCCO[C@H]1O[C@H](CO)[C@@H](O)[C@H](O)[C@@H]1O)CC(=O)NCCO[C@H]1O[C@H](CO)[C@@H](O)[C@H](O)[C@@H]1O)NC(=O)CN(CC(=O)NCCO[C@H]1O[C@H](CO)[C@@H](O)[C@H](O)[C@@H]1O)CC(=O)NCCO[C@H]1O[C@H](CO)[C@@H](O)[C@H](O)[C@@H]1O)NC(=O)CN(CC(=O)NCCO[C@@H]1O[C@@H](C)[C@@H](O)[C@@H](O)[C@@H]1O)CC(=O)NCCO[C@@H]1O[C@@H](C)[C@@H](O)[C@@H](O)[C@@H]1O [IOC-46]
12 | 8.04 | CC(=O)[C@H](CCCCN)NC(=O)CCCCCNC(=O)[C@H](CCCCNC(=O)CCCCCNC(=O)CCCCCNC(=O)CN(CC(=O)NCCO[C@H]1O[C@H](CO)[C@@H](O)[C@H](O)[C@@H]1O)CC(=O)NCCO[C@@H]1O[C@@H](C)[C@@H](O)[C@@H](O)[C@@H]1O)NC(=O)[C@H](CCCCNC(=O)CCCCCNC(=O)CN(CC(=O)NCCO[C@H]1O[C@H](CO)[C@@H](O)[C@H](O)[C@@H]1O)CC(=O)NCCO[C@@H]1O[C@@H](C)[C@@H](O)[C@@H](O)[C@@H]1O)NC(=O)CCCCCNC(=O)CN(CC(=O)NCCO[C@H]1O[C@H](CO)[C@@H](O)[C@H](O)[C@@H]1O)CC(=O)NCCO[C@@H]1O[C@@H](C)[C@@H](O)[C@@H](O)[C@@H]1O [IOC-53]
